Assay results taken from US7491521B2 (priority 2004, dated 2009).
Several values for one entry are separate records, joined by “and”; a condition that tells them apart may be missing. Equal entries are not always repeated.

Assays:
[1] = system: E. coli harboring pUD15 and pUD16; format: cell-based
[2] = system: E. coli harboring pUD15; format: cell-based

SMILES: [Cl-].[Cl-].[Co+2] [CoC12, CoCl2]
- optical density of the culture at 600 nm [1]: 2.524 and 2.173 and 2.113
- optical density of the culture at 600 nm [2]: 2.808 and 2.6955 and 2.330
